{"source": "patent US9485972B2", "about": "“Truncated tau proteins” (Axon Neuroscience SE, priority 2002, dated 2016)", "key": {"[1]": {"tested_on": "tubulin", "assay": "Microtubule assembly with tau type IIA and IIB", "assay_type": "biochemical", "conditions": "tau 0.1 mg/ml, tubulin 1 mg/ml, GTP 1 mM, 37° C., 340 nm, 5 min", "method": "The microtubule assembly reactions were carried out using three types of molecules: natural healthy human tau isoforms, Alz. tau type IIA (SEQ ID NO: 12) and tau type JIB (SEQ ID NO: 19). Three separate reactions were performed, each with single preparation of respective tau (healthy tau, recombinant tau type IIA or type IIB). Individual tau preparations at 0.1 mg/ml were mixed with tubulin and GTP (final concentration of tubulin is 1 mg/ml and GTP 1 mM), all reagencies in polymerisation buffer (100 mM PIPES, pH 6.9, 1 mM MgSO4, 2 mM EGTA). After gentle and rapid mixing, the samples were pipetted into quartz microcuvettes and equilibrated at 37° C. in a thermostatically controlled spectrophotometer (Beckman Coulter DU640). The turbidity changes were measured at 340 nm in 10 s intervals for a period of 5 min."}, "[2]": {"tested_on": "neuroblastoma cells expressing tau type IIA", "assay": "Oxidative stress (SIN-1) vulnerability, MTT reduction assay", "assay_type": "cell-based, human", "conditions": "cells expressing the tau protein vs non-expressing cells, SIN-1 0-3.3 mM, 24 hours", "description": "In the present example, the oxidative decomposition of 3-morpholinosydnonimine (SIN-1) was used which generates superoxide anions and nitric oxide, which react and thereby form peroxynitrite. This very reactive radical can further oxidize mainly cellular membrane systems. Persons skilled in art will be able to also apply another sources of oxidative stress to neuroblastoma cells in culture and will be able to obtain the same effect here described by the use on SIN-1.\nThe effect of vulnerability was tested as follows: • 1. SIN-1 was applied at various concentrations (0-3.32 mM) to human neuronal cell lines expressing tau type IIA protein SEQ ID NO 15 and SEQ ID NO 11, respectively. • 2. […] The EC50 values were compared for neuroblastoma cell lines in the presence or absence of diseased tau type IIA protein expression and the statistical significance of EC50 value differences was assessed by t-test. […]\nAfter five day, SIN-1 was added in concentrations ranging from 0 to 3.3 mM and the plates were incubated for 24 hours. […] The absorbance at 540 nm with background correction at 690 nm was measured on ELISA reader and the background-subtracted values were used for EC50 calculation, as it is well known in the art. […]"}, "[3]": {"tested_on": "tubulin", "assay": "Inhibitory effect of AD-brain derived and recombinant tau type IA on normal healthy tau in microtubule assembly assay", "assay_type": "biochemical", "conditions": "0.2 mg/ml type IA or IB, healthy tau 0.1 mg/ml, tubulin 1 mg/ml, preincubation 1 hr at 37° C., 340 nm, 5 min", "description": "AD-brain extracts as well as recombinant molecules of tau type IA are capable to inhibit microtubule assembly promotion when using natural healthy tau isoforms. For these experiments healthy human tau was isolated from brains of age matched controls and tau type IA was isolated from brains of AD patients (see Example 6, FIG. 6, fraction #19). Recombinant tau type IA (SEQ ID NO: 1) and type IB (SEQ ID NO:4, negative control) were produced and purified as shown in Example 6. In these experiments, brain-derived healthy tau isoforms (0.1 mg/ml), AD-brain derived or recombinant type IA tau or type IB (0.2 mg/ml) were mixed with tubulin. Each combination was assayed separately. The test mixtures were incubated 1 hr at 37° C. in a water bath with gently shaking. To the mixture kept on ice was added GTP and/or normal tau (final concentration of tubulin is 1 mg/ml and GTP 1 mM) all reagencies in polymerisation buffer (100 mM PIPES, pH 6.9, 1 mM MgSO4, 2 mM EGTA). After gentle and rapid mixing, the samples were pipetted into quartz microcuvettes and equilibrated at 37° C. in a thermostatically controlled spectrophotometer (Beckman Coulter DU640). The turbidity changes were measured at 340 nm in 10 s intervals for a period of 5 min. […] Curve 1 (FIG. 12) represents microtubule assembly promoted by normal tau."}, "[4]": {"tested_on": "purified porcine brain tubulin", "assay": "Microtubule assembly assay (MAA) with tau type IA and type IB", "assay_type": "biochemical", "conditions": "tau 0.1 mg/ml, tubulin 1 mg/ml, 1 mM GTP, 37° C., 20 min", "method": "The physiological function of healthy tau consists in stabilizing microtubules (MTs). This function can be measured by a microtubule assembly assay (MAA). In this examples, the MAA reactions were carried out using three types of tau molecules: normal healthy human tau, recombinant forms of tau type IA (SEQ ID NO: 1) and tau type IB (SEQ ID NO: 4). Normal human tau, tau type IA and type IB were assayed individually in separate reactions. Single preparations of tau at 0.1 mg/ml were mixed with purified porcine brain tubulin at a final concentration of 1 mg/ml and 1 mM GTP, all materials in polymerisation buffer (100 mM PIPES, pH 6.9, 1 mM MgSO4, 2 mM EGTA). Tau was added last to initiate the promotion of MT assembly. After gentle and rapid mixing, the samples were pipetted into quartz microcuvettes and equilibrated at 37° C. in a thermostatically controlled spectrophotometer (Beckman Coulter DU640). The turbidity was continuously monitored at 340 nm in 10 s intervals for a period of 20 min."}, "[5]": {"tested_on": "Human tubulin", "assay": "Inhibition of microtubule assembly by tau type IA and IB (tubulin preincubated, then normal human tau)", "assay_type": "biochemical", "conditions": "tubulin preincubated 1 hr at 37° C. with 0.2 mg/ml type IA or IB; normal human tau 0.1 mg/ml; 340 nm, 5 min", "method": "Both tau type IA and IB molecules lack functional activity when applied in a the MT assembly assay (MAA). […] For inhibition of microtubule assembly, recombinant forms of tau type IA (SEQ ID NO:1) and type IB (SEQ ID NO:4) were used. The assembly-inhibition reactions were carried out separately using type IA and type IB proteins. Human tubulin (2 mg/ml) was mixed with either type IA molecules (0.2 mg/ml) or type IB molecules (0.2 mg/ml). The mixtures were incubated 1 hr at 37° C. with gently shaking. To the mixtures kept on ice normal human tau (0.1 mg/ml) and GTP (final concentration of tubulin in the mixture is 1 mg/ml and GTP 1 mM) were added in polymerization buffer (100 mM PIPES, pH 6.9, 1 mM MgSO4, 2 mM EGTA). After gentle and rapid mixing, the samples were pipetted into quartz microcuvettes and equilibrated at 37° C. in a thermostatically controlled spectrophotometer (Beckman Coulter DU640). The turbidity changes were measured at 340 nm in 10 sec intervals over a period of 5 min."}, "[6]": {"tested_on": "microtubules", "assay": "Electron microscopy of microtubules formed with tau", "assay_type": "biochemical", "description": "However, Alzheimer tau type II produces pathological microtubules with typical pattern (see FIG. 28C)."}, "[7]": {"tested_on": "tau monoclonal antibody", "assay": "Competitive ELISA, affinity of monoclonal antibody to tau type IA and deletion mutants", "assay_type": "binding", "conditions": "read-out: apparent affinity (antigen concentration needed for 50% competition with prototype tau type IA)", "method": "FIG. 5: Affinity of monoclonal antibody to diseased tau type IA protein and its deletion mutants. Apparent affinity of monoclonal antibody to diseased tau type IA protein and its deletion mutants. In the first column are listed: the ‘prototype’ tau type IA protein (SEQ ID NO 1) and respective deletion mutants. In the middle column are indicated epitopes of the present invention. Apparent affinities stated in the last column were measured by competitive ELISA, and shown as the concentrations of corresponding antigen needed for 50% competition with the prototype tau type IA protein.\nThe significance of the ‘conformational region’ in tau type IA (segment A) or its parts was determined by sequential deletion either of whole conformation region (segment A) or its individual parts called epitopes and designated A1-A6. Since the conformation of type IA molecules strongly correlates with their function, the contribution of each epitope (A1-A6) to the overall conformation of the ‘segment A’ was measured on the basis of its reactivity when using a tau monoclonal antibody (FIG. 5)."}}, "data": [{"substance": "SEQ ID NO: 19: type IIB double truncated tau, 6-378, R4", "values": [{"measurement": "promotion of microtubule assembly compared to healthy tau", "setting": "[1]", "value": "promote microtubule assembly only to the level seen with healthy tau"}]}, {"substance": "SEQ ID NO: 18: type IIA double truncated tau, 69-332, R3", "values": [{"measurement": "decrease of resistance of neuroblastoma cells to oxidative stress (EC50 of SIN-1)", "setting": "[2]", "value": 50, "unit": "%"}]}, {"substance": "SEQ ID NO: 4: type IB double truncated tau, 239-326, R4", "values": [{"measurement": "inhibition of the capacity of normal tau to promote microtubule assembly", "setting": "[3]", "value": "not able to inhibit"}, {"measurement": "microtubule assembly promotion (turbidity at 340 nm)", "setting": "[4]", "value": "lacked any MT assembly promotion"}, {"measurement": "inhibition of microtubule assembly promoted by normal human tau", "setting": "[5]", "value": "does not inhibit the microtubule assembly capacity of normal tau"}]}, {"substance": "SEQ ID NO: 12: type IIA double truncated tau, 93-333, R4", "values": [{"measurement": "decrease of resistance of neuroblastoma cells to oxidative stress (EC50 of SIN-1)", "setting": "[2]", "value": 50, "unit": "%"}, {"measurement": "promotion of microtubule assembly compared to healthy tau", "setting": "[1]", "value": "extremely high (threefold) promotion"}]}, {"substance": "tau 43: shortest four repeat tau isoform, 383 amino acids, missing exons 2 and 3", "values": [{"measurement": "type of microtubules formed (electron microscopy)", "setting": "[6]", "value": "forms typical microtubules"}]}, {"substance": "normal healthy tau: tau protein derived from healthy brains [reference compound]", "values": [{"measurement": "microtubule assembly promotion (turbidity at 340 nm)", "setting": "[4]", "value": "microtubule assembly promotion capacity"}]}, {"substance": "SEQ ID NO: 1: type IA N- and C-terminally double truncated tau, residues 239-333 of four repeat tau43", "values": [{"measurement": "IC50", "setting": "[7]", "value": 10, "unit": "nM"}, {"measurement": "inhibition of the capacity of normal tau to promote microtubule assembly", "setting": "[3]", "value": "inhibit the capacity of normal tau to promote microtubule assembly"}, {"measurement": "microtubule assembly promotion (turbidity at 340 nm)", "setting": "[4]", "value": "lacked any MT assembly promotion"}, {"measurement": "inhibition of microtubule assembly promoted by normal human tau", "setting": "[5]", "value": "abolished microtubule assembly"}]}]}
